{"source": "patent US10030225B2", "about": "“Cell culture media” (Merck Patent GmbH, priority 2012, dated 2018)", "key": {"Solubility in water": {"experiment": "Solubility in water", "conditions": "for solubility (in words): comparison with tyrosine, refers to table 1; for solubility at 20° C. / solubility at 25° C. / solubility at 30° C.: in water"}, "Recombinant CHO cells [1]": {"tested_on": "Recombinant CHO cells", "experiment": "Fed batch process with neutral pH feed containing phospho-Tyr salts, 30 mL spin tubes", "type": "cell-based", "conditions": "30 mM in feed at pH 7.0; control tyrosine 2Na+ and Cysteine in separate feed at pH 11", "protocol": "FIGS. 5 and 6 show the viable cell density and IgG concentration over time in a fed batch process. Recombinant CHO cells are grown in fully chemically defined basal media and a feed containing phospho-Tyr salts at pH 7.0 is added on day 3; 5, 7 and 9 (addition of % v/v of 3%; 6% 6% 6%). […]. In these cases, Cysteine is still added as a separate feed at pH 11.\nThe process is performed in 30 mL spin tubes at 37° C., 5% CO2, agitation 320 rpm. For control, according to the state of the art, tyrosine 2Na+ and Cysteine are solubilized at pH 11 in a separate feed and added at day 3; 5; 7; 9 in %(V/V) of 0.3%, 0.6%, 0.6% and 0.6%.\nThe glucose concentration is measured every day and adjusted accordingly to maintain a concentration>2 g/L"}, "Recombinant CHO cells [2]": {"tested_on": "Recombinant CHO cells", "experiment": "Fed batch process with feed containing S-sulfocysteine and PTyr 2Na+ at pH 7.0, 1.2 L bioreactors", "type": "cell-based", "conditions": "main feed pH 7.0, in combination with PTyr 2Na+; control tyrosine 2Na+ and Cysteine at pH 11", "protocol": "FIGS. 7 and 8 show the viable cell density and IgG concentration over time in a fed batch process. Recombinant CHO cells are grown in fully chemically defined basal media and a feed containing both S-sulfocysteine and PTyr 2Na+ at pH 7.0. Feed is added on day 3; 5, 7, 9 and 14 (addition of % v/v of 3%; 6% 6% 6%, 3%). The process is performed in 1.2 L bioreactors at 37° C., pH 7.0, 50% dissolved oxygen, agitation 140 rpm. For control, according to the state of the art, tyrosine 2Na+ and Cysteine are solubilized at pH 11 in a separate feed and added at day 3; 5; 7; 9, 14 in %(V/V) of 0.3%, 0.6%, 0.6%, 0.6%, 0.3%. The glucose concentration is measured every day and adjusted accordingly to maintain a concentration>2 g/L"}, "cells [3]": {"tested_on": "cells", "experiment": "Batch experiment in chemically defined medium where Cysteine was replaced by S-sulfocysteine sodium salt", "type": "cell-based", "conditions": "1.5 and 3 mM, equivalent concentration to Cysteine", "protocol": "Batch experiment in chemically defined medium where Cysteine was replaced by S-sulfocysteine sodium salt (equivalent concentration). The CDM powder used as basis was depleted in Cysteine and Cystine and supplemented during reconstitution with Cysteine for the control conditions (1.5 and 3 mM) or with S-sulfocysteine sodium salt for the test conditions (1.5 and 3 mM)."}, "cells [4]": {"tested_on": "cells", "experiment": "Batch experiment in chemically defined medium where tyrosine was replaced by PTyr salts", "type": "cell-based", "source_text": "Batch experiment in chemically defined medium where tyrosine was replaced by PTyr salts. PTyr means (S)-2-Amino-3-(4-phosphonooxy-phenyl)-propionic-acid salt."}}, "note": "Counter-ions that a name gives are not always drawn."}
{"molecule": "N[C@@H](Cc1ccc(OP(=O)([O-])O)cc1)C(=O)O.[Na+]", "note": "[D3]", "values": [{"measurement": "solubility (in words)", "setting": "Solubility in water", "value": "higher solubility"}, {"measurement": "solubility at 20° C.", "setting": "Solubility in water", "value": 5.5, "unit": "%"}, {"measurement": "solubility at 25° C.", "setting": "Solubility in water", "value": 5.3, "unit": "%"}, {"measurement": "solubility at 30° C.", "setting": "Solubility in water", "value": 11.4, "unit": "%"}]}
{"molecule": "N[C@@H](Cc1ccc(OP(=O)([O-])[O-])cc1)C(=O)O.[Na+].[Na+]", "note": "[D4]", "values": [{"measurement": "solubility (in words)", "setting": "Solubility in water", "value": "very good solubility"}, {"measurement": "solubility at 20° C.", "setting": "Solubility in water", "value": 9.8, "unit": "%"}, {"measurement": "solubility at 25° C.", "setting": "Solubility in water", "value": 10.1, "unit": "%"}, {"measurement": "solubility at 30° C.", "setting": "Solubility in water", "value": 9.2, "unit": "%"}, {"measurement": "impact on growth (viable cell density)", "setting": "Recombinant CHO cells [1]", "value": "no negative impact"}, {"measurement": "impact on titer (IgG concentration)", "setting": "Recombinant CHO cells [1]", "value": "no negative impact"}]}
{"molecule": "N[C@@H](Cc1ccc(OP(=O)(O)O)cc1)C(=O)O", "note": "[PTyr Magnesium salt, (S)-2-Amino-3-(4-phosphonooxy-phenyl)-propionic-acid 2:1-magnesium salt]", "values": [{"measurement": "impact on growth (viable cell density)", "setting": "Recombinant CHO cells [1]", "value": "no negative impact"}, {"measurement": "impact on titer (IgG concentration)", "setting": "Recombinant CHO cells [1]", "value": "no negative impact"}]}
{"molecule": "N[C@@H](Cc1ccc(OP(=O)([O-])O)cc1)C(=O)O.[K+]", "note": "[PTyr Potassium salt, (S)-2-Amino-3-(4-phosphonooxy-phenyl)-propionic-acid mono potassium salt]", "values": [{"measurement": "impact on growth (viable cell density)", "setting": "Recombinant CHO cells [1]", "value": "no negative impact"}, {"measurement": "impact on titer (IgG concentration)", "setting": "Recombinant CHO cells [1]", "value": "no negative impact"}]}
{"molecule": "N[C@H](CSS(=O)(=O)[O-])C(=O)[O-].[Na+].[Na+]", "note": "[S-sulfocysteine sodium salt, (S)-2-amino-3-sulfosulfanylpropanoic acid sodium salt]", "values": [{"measurement": "growth (viable cell density) in comparison to the control", "setting": "Recombinant CHO cells [2]", "value": "extended growth"}, {"measurement": "titer (IgG concentration) in comparison to the control", "setting": "Recombinant CHO cells [2]", "value": "significant increase"}, {"measurement": "cell growth versus Cysteine control", "setting": "cells [3]", "value": "comparable growth"}]}
{"molecule": "(S)-2-Amino-3-(4-phosphonooxy-phenyl)-propionic-acid salt [PTyr]", "values": [{"measurement": "maximum viable cell density versus control", "setting": "cells [4]; PTyr 4.5 mM in the CDM versus 1 mM tyrosine in the control", "value": "even higher"}, {"measurement": "extended growth", "setting": "cells [4]; PTyr 4.5 mM in the CDM versus control", "value": 2, "unit": "days"}, {"measurement": "cell growth", "setting": "cells [4]; PTyr at the same concentration as Tyrosine in the medium (1 mM in the control)", "value": "cells didn't grow"}]}
